In PubChem BioAssay AID330 (DTP/NCI, 2004):
Where “and” joins values, the source holds several entries; their conditions need not be identical. Identical values can stand only once. Toxic doses and inconclusive results are not listed. Rule for the calls: active = survival T/C of 150% or more; inactive = T/C below 125% in these data. Peptide text beside a SMILES is read from it.

System: P388 leukemia ip, CD2F1 mice, survival T/C
Test: NCI In Vivo Anticancer Drug Screen. Data for tumor model P388 Leukemia (intraperitoneal) in CD2F1 (CDF1) mice
Details: endpoint: median survival time, higher = longer survival
Method in brief: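 Mice carrying the transplanted tumor received test compound or vehicle. Survival was recorded in each group, and the value is the treated-group measurement divided by that of the vehicle-treated control group.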

[1] = dose: 50.0 mg/kg/injection, schedule: Q01DX005 (ip), vehicle: saline with Tween-80
[2] = dose: 100.0 mg/kg/injection, schedule: Q01DX005 (ip), vehicle: saline with Tween-80
[3] = dose: 200.0 mg/kg/injection, schedule: Q01DX005 (ip), vehicle: saline with Tween-80
[4] = dose: 50.0 mg/kg/injection, schedule: Q01DX009 (ip), vehicle: saline
[5] = dose: 100.0 mg/kg/injection, schedule: Q01DX009 (ip), vehicle: saline
[6] = dose: 12.5 mg/kg/injection, schedule: Q01DX009 (ip), vehicle: saline
[7] = dose: 25.0 mg/kg/injection, schedule: Q01DX009 (ip), vehicle: saline
[8] = dose: 50.0 mg/kg/injection, schedule: Q01DX005 (ip), vehicle: Klucel (hydroxypropylcellulose) (HPC)
[9] = dose: 200.0 mg/kg/injection, schedule: Q01DX005 (ip), vehicle: Klucel (hydroxypropylcellulose) (HPC)
[10] = dose: 25.0 mg/kg/injection, schedule: Q01DX009 (ip), vehicle: saline with Tween-80
[11] = dose: 50.0 mg/kg/injection, schedule: Q01DX009 (ip), vehicle: saline with Tween-80
[12] = dose: 100.0 mg/kg/injection, schedule: Q01DX009 (ip), vehicle: saline with Tween-80
[13] = dose: 200.0 mg/kg/injection, schedule: Q01DX009 (ip), vehicle: saline with Tween-80
[14] = dose: 60.0 mg/kg/injection, schedule: Q01DX005 (ip), vehicle: saline with Tween-80
[15] = dose: 120.0 mg/kg/injection, schedule: Q01DX005 (ip), vehicle: saline with Tween-80
[16] = dose: 240.0 mg/kg/injection, schedule: Q01DX005 (ip), vehicle: saline with Tween-80

Measured: T/C

CC(C)C(N)C(=O)NCC(=O)NC(CO)C(=O)NC(CCC(=O)O)C(=O)O (centres undefined) (H-VGSE-OH; configuration not given here)
inactive: dose: 10.0 mg/kg/injection, schedule: Q01DX005 (ip), vehicle: water 100 % of control | dose: 20.0 mg/kg/injection, schedule: Q01DX005 (ip), vehicle: water 102 % of control | dose: 40.0 mg/kg/injection, schedule: Q01DX005 (ip), vehicle: water 100 % of control | dose: 80.0 mg/kg/injection, schedule: Q01DX005 (ip), vehicle: water 97 % of control | dose: 160.0 mg/kg/injection, schedule: Q01DX005 (ip), vehicle: water 104 % of control

COC(=O)C1=CC(=O)N2CCN=C2S1
inactive: [1] 103 % of control | [2] 100 % of control | [3] 90 % of control

ClC(Cl)=Nc1ccc(Cl)cc1Cl
inactive: [4] 100 % of control | [5] 89 % of control

CNC(=O)Oc1cccc(NC(=S)SC)c1
inactive: dose: 12.5 mg/kg/injection, schedule: Q04DX003 (ip), vehicle: saline with Tween-80 106 % of control | dose: 25.0 mg/kg/injection, schedule: Q04DX003 (ip), vehicle: saline with Tween-80 104 % of control | dose: 50.0 mg/kg/injection, schedule: Q04DX003 (ip), vehicle: saline with Tween-80 100 % of control | dose: 100.0 mg/kg/injection, schedule: Q04DX003 (ip), vehicle: saline with Tween-80 104 % of control

COC(=O)CC(N)C(=O)O (centres undefined)
inactive: dose: 12.5 mg/kg/injection, schedule: Q01DX005 (ip), vehicle: saline 97 % of control | dose: 25.0 mg/kg/injection, schedule: Q01DX005 (ip), vehicle: saline 89 % of control | dose: 50.0 mg/kg/injection, schedule: Q01DX005 (ip), vehicle: saline 99 % of control | dose: 100.0 mg/kg/injection, schedule: Q01DX005 (ip), vehicle: saline 97 % of control | dose: 200.0 mg/kg/injection, schedule: Q01DX005 (ip), vehicle: saline 94 % of control

CCNC(=S)N=Nc1c(O)[nH]c2ccccc12
inactive: [6] 90 % of control | [7] 89 % of control | [4] 88 % of control and 89 % of control

COc1ccc(Oc2ccc(C(=O)C(CN(C)C)CN(C)C)cc2)cc1
inactive: dose: 3.75 mg/kg/injection, schedule: Q01DX005 (ip), vehicle: saline 121 % of control | dose: 7.5 mg/kg/injection, schedule: Q01DX005 (ip), vehicle: saline 124 % of control | dose: 30.0 mg/kg/injection, schedule: Q01DX005 (ip), vehicle: saline 88 % of control

CCCCOC(=O)NP1(=O)NCc2ccccc2CN1
inactive: dose: 12.5 mg/kg/injection, schedule: Q01DX005 (ip), vehicle: Klucel (hydroxypropylcellulose) (HPC) 93 % of control | dose: 25.0 mg/kg/injection, schedule: Q01DX005 (ip), vehicle: Klucel (hydroxypropylcellulose) (HPC) 87 % of control | [8] 91 % of control and 93 % of control | [9] 91 % of control

O=C(O)c1nc2ccccc2c(=O)[nH]1
inactive: [10] 95 % of control | [11] 96 % of control | [12] 94 % of control | [13] 93 % of control

Cc1cn(C2CC(O)C(C(=O)Nc3ccc(C(=O)CCl)cc3)O2)c(=O)[nH]c1=O (centres undefined)
inactive: [1] 108 % of control | [2] 114 % of control | [3] 109 % of control

NC1=NN(Cc2nnc(-c3ccccc3)s2)C(=O)C1
inactive: [14] 93 % of control | [15] 101 % of control | [16] 111 % of control

O=C(O)CCCCCSCCCCCCSCCCCCC(=O)O
inactive: [8] 102 % of control | dose: 100.0 mg/kg/injection, schedule: Q01DX005 (ip), vehicle: Klucel (hydroxypropylcellulose) (HPC) 105 % of control | [9] 100 % of control

Cc1cc(N=NC(N)=S)c2ccccc2c1O
inactive: dose: 25.0 mg/kg/injection, schedule: Q04DX003 (ip), vehicle: Klucel (hydroxypropylcellulose) (HPC) 100 % of control | dose: 50.0 mg/kg/injection, schedule: Q04DX003 (ip), vehicle: Klucel (hydroxypropylcellulose) (HPC) 97 % of control | dose: 100.0 mg/kg/injection, schedule: Q04DX003 (ip), vehicle: Klucel (hydroxypropylcellulose) (HPC) 102 % of control | dose: 200.0 mg/kg/injection, schedule: Q04DX003 (ip), vehicle: Klucel (hydroxypropylcellulose) (HPC) 100 % of control

O=C(CCN1CCOCC1)c1ccccc1
inactive: [6] 100 % of control | [7] 101 % of control | [4] 100 % of control | [5] 104 % of control | dose: 200.0 mg/kg/injection, schedule: Q01DX009 (ip), vehicle: saline 103 % of control

CC(C(/C=N/NC(N)=S)=N/NC(N)=S)N1C(=O)c2ccccc2C1=O (centres undefined)
inactive: [14] 97 % of control | [15] 94 % of control | [16] 88 % of control

CCN(CC)C(=O)C(F)Cl (centres undefined)
inactive: [14] 88 % of control | [15] 88 % of control | [16] 95 % of control

Cn1c(=O)c2c(nc(N3CCN(CCO)CC3)n2CC(O)CCl)n(C)c1=O (centres undefined)
inactive: dose: 50.0 mg/kg/injection, schedule: Q01DX005 (ip), vehicle: water 100 % of control | dose: 100.0 mg/kg/injection, schedule: Q01DX005 (ip), vehicle: water 99 % of control | dose: 200.0 mg/kg/injection, schedule: Q01DX005 (ip), vehicle: water 99 % of control

c1ccc(-c2nc3cnccc3o2)cc1
inactive: dose: 6.25 mg/kg/injection, schedule: Q01DX009 (ip), vehicle: Klucel (hydroxypropylcellulose) (HPC) 103 % of control | dose: 12.5 mg/kg/injection, schedule: Q01DX009 (ip), vehicle: Klucel (hydroxypropylcellulose) (HPC) 105 % of control | dose: 25.0 mg/kg/injection, schedule: Q01DX009 (ip), vehicle: Klucel (hydroxypropylcellulose) (HPC) 114 % of control | dose: 50.0 mg/kg/injection, schedule: Q01DX009 (ip), vehicle: Klucel (hydroxypropylcellulose) (HPC) 112 % of control

Cc1[nH]cnc1CSCCN=C(N)n1[nH]cc(-c2ccc(Cl)cc2)c1=O
inactive: dose: 100.0 mg/kg/injection, schedule: Q01DX001 (ip), vehicle: Klucel (hydroxypropylcellulose) (HPC) 100 % of control | dose: 200.0 mg/kg/injection, schedule: Q01DX001 (ip), vehicle: Klucel (hydroxypropylcellulose) (HPC) 97 % of control | dose: 400.0 mg/kg/injection, schedule: Q01DX001 (ip), vehicle: Klucel (hydroxypropylcellulose) (HPC) 101 % of control

CC(=O)[O][Hg][CH2]C1Cc2ccccc2O1 (centres undefined)
inactive: dose: 2.5 mg/kg/injection, schedule: Q01DX009 (ip), vehicle: saline 98 % of control | dose: 5.0 mg/kg/injection, schedule: Q01DX009 (ip), vehicle: saline 99 % of control | dose: 10.0 mg/kg/injection, schedule: Q01DX009 (ip), vehicle: saline 99 % of control | dose: 20.0 mg/kg/injection, schedule: Q01DX009 (ip), vehicle: saline 100 % of control

CCCCCC#CC(=O)OC
inactive: [10] 109 % of control | [11] 109 % of control | [12] 104 % of control | [13] 118 % of control

CN(C)CC(C(=O)/C=C/c1ccccc1)C(C)(C)C (centres undefined)
inactive: dose: 60.0 mg/kg/injection, schedule: Q01DX005 (ip), vehicle: saline 105 % of control | dose: 120.0 mg/kg/injection, schedule: Q01DX005 (ip), vehicle: saline 104 % of control

COc1c2c3c4c5c(c(=O)cc6c5c5c(cc(=O)c(c1O)c35)OCO6)=C(O)[C@@]1(OC)O[C@H](C)C[C@@]41C2
inactive: dose: 2.5 mg/kg/injection, schedule: Q01DX009 (ip), vehicle: saline with Tween-80 95 % of control | dose: 5.0 mg/kg/injection, schedule: Q01DX009 (ip), vehicle: saline with Tween-80 95 % of control | dose: 10.0 mg/kg/injection, schedule: Q01DX009 (ip), vehicle: saline with Tween-80 95 % of control

CCC(C)C(NC(=O)C(F)(F)F)C(=O)O (centres undefined)
inactive: [11] 98 % of control | [12] 98 % of control | [13] 103 % of control

CCCCCCCCCCCCCCCC(=O)N(CCCN)CCCN(CCCN)C(=O)CCCCCCCCCCCCCCC
inactive: dose: 12.5 mg/kg/injection, schedule: Q01DX009 (ip), vehicle: saline with Tween-80 86 % of control | [10] 109 % of control | [11] 100 % of control

COc1ccc(C(=NO)c2ccc(OC)cc2)cc1
inactive: dose: 100.0 mg/kg/injection, schedule: Q04DX003 (ip), vehicle: saline 100 % of control | dose: 200.0 mg/kg/injection, schedule: Q04DX003 (ip), vehicle: saline 100 % of control | dose: 400.0 mg/kg/injection, schedule: Q04DX003 (ip), vehicle: saline 104 % of control
